# Target: T1, human full length HSD11β1 (Homo sapiens, UniProt P28845)
# T1 construct: transient expression of human full length HSD11β1 expression vector; host or cells: CHO cells, transient transfection
# Experiment: In Vitro HSD11β1 Inhibition Assay
# Format: cell-based
# Details: CHO cells transiently expressing human HSD11β1; 200 nM cortisone+500 uM NADPH overnight; cortisone to cortisol by LC/MS-MS; read-out: 11βHSD1 (IC50)
# Description: In Vitro HSD11β1 Inhibition Assay:
# CHO cells were maintained in Dulbecco's modified Eagle's medium/nutrient mixture F-12 containing 5% fetal bovine serum (v/v) and 2 mM glutamine. Cells were cultured at 37° C. with 5% CO2. For transient expression of human full length HSD11β1 expression vector (OriGene Technologies), cells were seeded at a density of 2×10^5 cells/well in a 6-well plate. Transfection was done using Turbofectin8 reagent (OriGene Technologies), according to the protocol provided with the reagent. After 24 hours post-transfection, cells were trypsinized and pooled together before they were re-seeding to 96-well plate at a density of 40000 cells/well. 24 hours after re-seeding, cells were incubated with 200 nM cortisone+500 uM NADPH (or along with small molecule inhibitors) overnight. The enzymatic activity or inhibition of enzyme activity was measured by estimating the conversion of cortisone to cortisol by LC/MS-MS method. The IC50 in nM was calculated from a 8 point log scale of concentration versus inhibition.
# T1 sequence (P28845 whole entry): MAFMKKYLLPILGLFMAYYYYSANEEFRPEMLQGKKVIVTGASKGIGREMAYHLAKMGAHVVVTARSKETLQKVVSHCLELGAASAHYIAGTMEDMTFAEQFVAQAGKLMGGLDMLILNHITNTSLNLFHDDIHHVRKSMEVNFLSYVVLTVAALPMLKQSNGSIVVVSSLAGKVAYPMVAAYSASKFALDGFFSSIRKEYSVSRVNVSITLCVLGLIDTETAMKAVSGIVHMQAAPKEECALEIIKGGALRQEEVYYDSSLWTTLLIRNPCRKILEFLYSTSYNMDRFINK
row,IC50,Structure (SMILES)
1,0.1 to 0.15 µM,"O=C(CC(c1c[nH]c2cccc(F)c12)C1CC1)N1C2CC3CC1CC(O)(C3)C2 (stereo not shown) [Compound 95, 3-cyclopropyl-3-(4-fluoro-1H-indol-3-yl)-1-(5-hydroxy-2-azatricyclo[3.3.1.1^3,7]dec-2-yl)propan-1-one]"
2,0.1 to 0.15 µM,"O=C(CC(c1ccc(F)cc1F)c1c[nH]c2ccccc12)N1C2CC3CC1CC(O)(C3)C2 (stereo not shown) [Compound 96, 3-(2,4-difluorophenyl)-1-(5-hydroxy-2-azatricyclo[3.3.1.1^3,7]dec-2-yl)-3-(1H-indol-3-yl)propan-1-one]"
3,< 0.1 µM,"O=C(CC(c1ccc(F)cc1)c1c[nH]c2cccc(F)c12)N1C2CC3CC1CC(O)(C3)C2 (stereo not shown) [Compound 99, 3-(4-fluoro-1H-indol-3-yl)-3-(4-fluorophenyl)-1-(5-hydroxy-2-azatricyclo[3.3.1.1^3,7]dec-2-yl)propan-1-one]"
4,< 0.1 µM,"Cc1cccc2[nH]cc(C(C)CC(=O)N3C4CC5CC3CC(F)(C5)C4)c12 (stereo not shown) [Compound 104, 1-(5-fluoro-2-azatricyclo[3.3.1.1^3,7]dec-2-yl)-3-(4-methyl-1H-indol-3-yl)butan-1-one]"
5,< 0.1 µM,"CC(CC(=O)N1C2CC3CC(C2)CC1C3)c1nc2ccccc2s1 (stereo not shown) [Compound 105, 1-(2-azatricyclo[3.3.1.1^3,7]dec-2-yl)-3-(1,3-benzothiazol-2-yl)butan-1-one]"
6,0.1 to 0.15 µM,"CC(CC(=O)N1C2CC3CC1CC(F)(C3)C2)c1nc2ccccc2s1 (stereo not shown) [Compound 106, 3-(1,3-benzothiazol-2-yl)-1-(5-fluoro-2-azatricyclo[3.3.1.1^3,7]dec-2-yl)butan-1-one]"
7,> 0.25 µM,"O=C(CC(c1ccccc1)c1nc2ccccc2s1)N1C2CC3CC1CC(O)(C3)C2 (stereo not shown) [Compound 107, 3-(1,3-benzothiazol-2-yl)-1-(5-hydroxy-2-azatricyclo[3.3.1.1^3,7]dec-2-yl)-3-phenylpropan-1-one]"
8,> 0.25 µM,"O=C(CC(c1ccccc1)c1nc2ccccc2s1)N1C2CC3CC1CC(F)(C3)C2 (stereo not shown) [Compound 108, 3-(1,3-benzothiazol-2-yl)-1-(5-fluoro-2-azatricyclo[3.3.1.1^3,7]dec-2-yl)-3-phenylpropan-1-one]"
9,> 0.25 µM,"COc1ccc2[nH]cc(C(C)CC(=O)N3C4CC5CC3CC(O)(C5)C4)c2c1 (stereo not shown) [Compound 109, 1-(5-hydroxy-2-azatricyclo[3.3.1.1^3,7]dec-2-yl)-3-(5-methoxy-1H-indol-3-yl)butan-1-one]"
10,> 0.25 µM,"Cc1ccc2[nH]cc(C(C)CC(=O)N3C4CC5CC3CC(O)(C5)C4)c2c1 (stereo not shown) [Compound 110, 1-(5-hydroxy-2-azatricyclo[3.3.1.1^3,7]dec-2-yl)-3-(5-methyl-1H-indol-3-yl)butan-1-one]"
11,> 0.25 µM,"O=C(CC(c1ccccc1)c1c[nH]c2cccc(F)c12)N1C2CC3CC1CC(C(=O)O)(C3)C2 (stereo not shown) [Compound 111, 2-[3-(4-fluoro-1H-indol-3-yl)-3-phenylpropanoyl]-2-azatricyclo[3.3.1.1^3,7]decane-5-carboxylic acid]"
12,0.2 to 0.25 µM,"O=C(CC(c1ccccc1)c1c[nH]c2cc(F)ccc12)N1C2CC3CC1CC(C(=O)O)(C3)C2 (stereo not shown) [Compound 112, 2-[3-(6-fluoro-1H-indol-3-yl)-3-phenylpropanoyl]-2-azatricyclo[3.3.1.1^3,7]decane-5-carboxylic acid]"
13,> 0.25 µM,"Cc1[nH]c2ccc(F)cc2c1C(C)CC(=O)N1C2CC3CC1CC(O)(C3)C2 (stereo not shown) [Compound 113, 3-(5-fluoro-2-methyl-1H-indol-3-yl)-1-(5-hydroxy-2-azatricyclo[3.3.1.1^3,7]dec-2-yl)butan-1-one]"
14,0.2 to 0.25 µM,"Cc1cccc2[nH]cc(CCC(=O)N3C4CC5CC3CC(O)(C5)C4)c12 [Compound 116, 1-(5-hydroxy-2-azatricyclo[3.3.1.1^3,7]dec-2-yl)-3-(4-methyl-1H-indol-3-yl)propan-1-one]"
15,> 0.25 µM,"COc1cc2c(C(C)CC(=O)N3C4CC5CC3CC(O)(C5)C4)c[nH]c2cc1Cl (stereo not shown) [Compound 117, 3-(6-chloro-5-methoxy-1H-indol-3-yl)-1-(5-hydroxy-2-azatricyclo[3.3.1.1^3,7]dec-2-yl)butan-1-one]"
16,> 0.25 µM,"CC(CC(=O)N1C2CC3CC1CC(C#N)(C3)C2)c1nc2ccccc2s1 (stereo not shown) [Compound 118, 2-[3-(1,3-benzothiazol-2-yl)butanoyl]-2-azatricyclo[3.3.1.1^3,7]decane-5-carbonitrile]"
17,< 0.1 µM,"CC(CC(=O)N1C2CC3CC(C2)CC1C3)c1nc2c(Cl)cccc2s1 (stereo not shown) [Compound 119, 1-(2-azatricyclo[3.3.1.1^3,7]dec-2-yl)-3-(4-chloro-1,3-benzothiazol-2-yl)butan-1-one]"

row,IC50,Structure (SMILES)
1,> 0.25 µM,"CC(CC(=O)N1C2CC3CC1CC(O)(C3)C2)c1nc2c(Cl)cccc2s1 (stereo not shown) [Compound 120, 3-(4-chloro-1,3-benzothiazol-2-yl)-1-(5-hydroxy-2-azatricyclo[3.3.1.1^3,7]dec-2-yl)butan-1-one]"
2,> 0.25 µM,"O=C(CC(c1ccccc1)n1nnc2ccccc21)N1C2CC3CC1CC(O)(C3)C2 (stereo not shown) [Compound 121, 3-(1H-benzotriazol-1-yl)-1-(5-hydroxy-2-azatricyclo[3.3.1.1^3,7]dec-2-yl)-3-phenylpropan-1-one]"
3,> 0.25 µM,"O=C(O)C1C2CC3CC(C2)N(C(=O)CC(c2cccs2)c2c[nH]c4cccc(F)c24)C1C3 (stereo not shown) [Compound 122, 2-[3-(4-fluoro-1H-indol-3-yl)-3-(thiophen-2-yl)propanoyl]-2-azatricyclo[3.3.1.1^3,7]decane-4-carboxylic acid]"
4,> 0.25 µM,"CC(CC(=O)N1C2CC3CC1CC(C#N)(C3)C2)c1nc2c(Cl)cccc2s1 (stereo not shown) [Compound 123, 2-[3-(4-chloro-1,3-benzothiazol-2-yl)butanoyl]-2-azatricyclo[3.3.1.1^3,7]decane-5-carbonitrile]"
5,< 0.1 µM,"O=C(CCc1c[nH]c2cccc(C3CC3)c12)N1C2CC3CC1CC(O)(C3)C2 [Compound 126, 3-(4-cyclopropyl-1H-indol-3-yl)-1-(5-hydroxy-2-azatricyclo[3.3.1.1^3,7]dec-2-yl)propan-1-one]"
6,< 0.1 µM,"O=C(CC(c1cccs1)c1c[nH]c2cccc(F)c12)N1C2CC3CC1CC(O)(C3)C2 (stereo not shown) [Compound 127, 3-(4-fluoro-1H-indol-3-yl)-1-(5-hydroxy-2-azatricyclo[3.3.1.1^3,7]dec-2-yl)-3-(thiophen-2-yl)propan-1-one]"
7,> 0.25 µM,"CCCc1cccc2[nH]cc(CCC(=O)N3C4CC5CC3CC(O)(C5)C4)c12 [Compound 128, 1-(5-hydroxy-2-azatricyclo[3.3.1.1^3,7]dec-2-yl)-3-(4-propyl-1H-indol-3-yl)propan-1-one]"
8,> 0.25 µM,"Cc1cccc2c1nnn2C(CC(=O)N1C2CC3CC1CC(O)(C3)C2)C(C)C (stereo not shown) [Compound 131, 1-(5-hydroxy-2-azatricyclo[3.3.1.1^3,7]dec-2-yl)-4-methyl-3-(4-methyl-1H-benzotriazol-1-yl)pentan-1-one]"
9,< 0.1 µM,"CC(CC(=O)N1C2CC3CC1CC(O)(C3)C2)c1c[nH]c2nccc(C3CC3)c12 (stereo not shown) [Compound 132, 3-(4-cyclopropyl-1H-pyrrolo[2,3-b]pyridin-3-yl)-1-(5-hydroxy-2-azatricyclo[3.3.1.1^3,7]dec-2-yl)butan-1-one]"
10,0.1 to 0.15 µM,"CC(CC(=O)N1C2CC3CC1CC(O)(C3)C2)c1c[nH]c2cc(Cl)c(F)cc12 (stereo not shown) [Compound 133, 3-(6-chloro-5-fluoro-1H-indol-3-yl)-1-(5-hydroxy-2-azatricyclo[3.3.1.1^3,7]dec-2-yl)butan-1-one]"
11,0.15 to 0.2 µM,"O=C(CC(c1ccccc1)c1c[nH]c2cc(Cl)ccc12)N1C2CC3CC1CC(C(=O)O)(C3)C2 (stereo not shown) [Compound 134, 2-[3-(6-chloro-1H-indol-3-yl)-3-phenylpropanoyl]-2-azatricyclo[3.3.1.1^3,7]decane-5-carboxylic acid]"
12,> 0.25 µM,"CC(CC(=O)N1C2CC3CC1CC(O)(C3)C2)c1c[nH]c2ncc(Cl)cc12 (stereo not shown) [Compound 135, 3-(5-chloro-1H-pyrrolo[2,3-b]pyridin-3-yl)-1-(5-hydroxy-2-azatricyclo[3.3.1.1^3,7]dec-2-yl)butan-1-one]"
13,< 0.1 µM,"CC(CC(=O)N1C2CC3CC1CC(C#N)(C3)C2)c1c[nH]c2nccc(C3CC3)c12 (stereo not shown) [Compound 136, 2-[3-(4-cyclopropyl-1H-pyrrolo[2,3-b]pyridin-3-yl)butanoyl]-2-azatricyclo[3.3.1.1^3,7]decane-5-carbonitrile]"
14,> 0.25 µM,"CC(CC(=O)N1C2CC3CC1CC(C#N)(C3)C2)c1c[nH]c2ncc(Cl)cc12 (stereo not shown) [Compound 137, 2-[3-(6-chloro-1H-pyrrolo[2,3-b]pyridin-3-yl)butanoyl]-2-azatricyclo[3.3.1.1^3,7′]decane-5-carbonitrile]"
15,0.1 to 0.15 µM,"CC(CC(=O)N1C2CC3CC1CC(O)(C3)C2)c1c[nH]c2cc(Cl)c(C3CC3)cc12 (stereo not shown) [Compound 138, 3-(6-chloro-5-cyclopropyl-1H-indol-3-yl)-1-(5-hydroxy-2-azatricyclo[3.3.1.1^3,7]dec-2-yl)butan-1-one]"
16,< 0.1 µM,"Cc1c(F)ccc2[nH]cc(C(C)CC(=O)N3C4CC5CC3CC(O)(C5)C4)c12 (stereo not shown) [Compound 139, 3-(5-fluoro-4-methyl-1H-indol-3-yl)-1-(5-hydroxy-2-azatricyclo[3.3.1.1^3,7]dec-2-yl)butan-1-one]"
17,> 0.25 µM,"CC(CC(=O)N1C2CC3CC1CC(C(=O)O)(C3)C2)c1c[nH]c2ccc(-c3ccccc3)cc12 (stereo not shown) [Compound 142, 2-[3-(5-phenyl-1H-indol-3-yl)butanoyl]-2-azatricyclo[3.3.1.1^3,7]decane-5-carboxylic acid]"

# — patent publication US9303016B2, “Derivatives of aza adamantane and uses thereof” (CONNEXIOS LIFE SCIENCES PVT. LTD., priority 2011, dated 2016)
